Data as given in ChEMBL document CHEMBL4765466, “Recent Advances in the Development of PD-L1 Modulators: Degraders, Downregulators, and Covalent Inhibitors” (J Med Chem, 2020).

Assay: Lipophilicity, log P of the compound
Assay type: physicochemical
Conditions: octanol/water

- logP: 4.4
Structure (SMILES): COc1nc(OCc2cccc(-c3ccccc3)c2C)ccc1CNCCNC(C)=O
